This is an account of results in patent US11542265B2, “Pyrazolopyrimidine compounds and uses thereof” (Incyte Corporation, priority 2016, dated 2023).

The structures appear in SMILES notation. pKi: −log10 of the molar value.

Sequence of HPK1 (Q92918 whole entry, looked up): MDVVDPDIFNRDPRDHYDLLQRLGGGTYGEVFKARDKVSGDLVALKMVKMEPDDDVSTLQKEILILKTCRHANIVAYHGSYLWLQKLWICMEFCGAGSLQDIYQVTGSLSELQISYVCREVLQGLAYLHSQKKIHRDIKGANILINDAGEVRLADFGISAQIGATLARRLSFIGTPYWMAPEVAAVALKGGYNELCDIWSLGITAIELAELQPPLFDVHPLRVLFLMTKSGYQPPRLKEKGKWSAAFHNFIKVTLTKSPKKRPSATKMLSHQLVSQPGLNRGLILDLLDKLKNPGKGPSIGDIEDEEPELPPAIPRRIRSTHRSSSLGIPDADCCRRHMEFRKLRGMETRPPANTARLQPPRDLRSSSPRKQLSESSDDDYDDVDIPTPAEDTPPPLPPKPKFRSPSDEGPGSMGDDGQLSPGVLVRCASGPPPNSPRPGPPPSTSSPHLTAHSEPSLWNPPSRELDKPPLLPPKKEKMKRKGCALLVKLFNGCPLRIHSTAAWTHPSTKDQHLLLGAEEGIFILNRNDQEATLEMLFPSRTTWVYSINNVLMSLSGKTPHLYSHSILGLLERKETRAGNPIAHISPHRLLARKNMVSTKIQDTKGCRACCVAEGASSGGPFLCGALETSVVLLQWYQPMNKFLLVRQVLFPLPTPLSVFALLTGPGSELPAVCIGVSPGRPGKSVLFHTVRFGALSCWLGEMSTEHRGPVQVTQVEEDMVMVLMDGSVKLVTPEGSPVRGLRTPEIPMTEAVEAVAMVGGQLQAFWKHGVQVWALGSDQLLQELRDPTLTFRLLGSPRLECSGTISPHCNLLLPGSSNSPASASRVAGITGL

This assay has as its target HPK1 (Homo sapiens, UniProt Q92918). Briefly: HPK1 Kinase Binding Assay. To be noted: LanthaScreen tracer 222, Eu-Anti GST antibody, active HPK1, one hour incubation at 25° C. The method, then:
A stock solution of 1 mM test compound was prepared in DMSO. The compound plate was prepared by 3-fold and 11-point serial dilutions. 0.1 μL of the compound in DMSO was transferred from the compound plate to the white 384 well polystyrene plates. The assay buffer contained 50 mM HEPES, pH 7.5, 0.01% Tween-20, 5 mM MgCl2, 0.01% BSA, and 5 mM DTT. 5 μl of 4 nM active HPK1 (SignalChem M23-11G) prepared in the buffer was added to the plate. The enzyme concentration given was based on the given stock concentration reported by the vender. 5 μl of 18 nM tracer 222 (ThermoFisher PV6121) and 4 nM LanthaScreen Eu-Anti GST antibody (ThermoFisher PV5595) were added. After one hour incubation at 25° C., the plates were read on a PHERAstar FS plate reader (BMG Labtech). Ki values were determined.
As usually defined, the pKi is the Ki on a negative log10 scale, so that one unit is a factor of ten. High values mean a low Ki, low ones a high Ki. With `CNCc1cc(F)c(-c2ncc3[nH]nc(-c4ccc(NC5CCN(S(C)(=O)=O)CC5)cc4)c3n2)c(F)c1` [Example 72, 7V-(4-(5-(2,6-Difluoro-4-((methylamino)methyl)phenyl)-1H-pyrazolo[4,3-d]pyrimidin-3-yl)phenyl)-1-(methylsulfonyl)piperidin-4-amine], the pKi is not below 7.00.

Compound `CNCc1cc(F)c(-c2ncc3[nH]nc(-c4ccc(N5CCCCC5)nc4)c3n2)c(C(F)(F)F)c1` [Example 76, 1-(3-Fluoro-4-(3-(6-(piperidin-1-yl)pyridin-3-yl)-1H-pyrazolo[4,3-d]pyrimidin-5-yl)-5-(trifluoromethyl)phenyl)-N-methylmethanamine] showed a pKi not below 7.00.

Take `CN1CCN(c2ncc(-c3n[nH]c4cnc(-c5c(F)cc(CC#N)cc5F)nc34)cn2)CC1` [Example 105, 2-(3,5-Difluoro-4-(3-(2-(4-methylpiperazin-1-yl)pyrimidin-5-yl)-1H-pyrazolo[4,3-d]pyrimidin-5-yl)phenyl)acetonitrile]: the negative-log Ki (pKi) was not below 7.00.
